According to the supplement of paper PMC10307832:

Assays:
Assay in all cases: relative viability (nuclei count vs DMSO), 5 days (fraction); higher = more cells survive
ChaGo-K-1 = system: ChaGo-K-1
How it was run: (§1)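 Relative viability was taken as the ratio of nuclei in treated wells to nuclei in vehicle wells. Lung cancer cell lines in 1536-well plates received compounds by pin tool one day after seeding, either one drug alone or a fixed anchor-drug dose plus five library-drug doses (not always all listed) in √10 steps. Nuclei were counted on 4× images after 5 days of treatment, and values are medians of duplicate plates.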

NCI-H1623 = system: NCI-H1623
How it was run: as §1

NCI-H1648 = system: NCI-H1648
How it was run: as §1

A549 = system: A549
How it was run: as §1

Calu-6 = system: Calu-6
How it was run: as §1

EBC-1 = system: EBC-1
How it was run: as §1

IA-LM = system: IA-LM
How it was run: as §1

NCI-H1299 = system: NCI-H1299
How it was run: as §1

NCI-H1703 = system: NCI-H1703
How it was run: as §1

Compound Clc1ccc(Nc2nnc(Cc3ccncc3)c3ccccc23)cc1 [Vatalanib] + COc1cccc2cc(-c3nc([C@H]4CC[C@H](C(=O)O)CC4)n4ncnc(N)c34)[nH]c12 [OSI-027] (partner 0.5 µM) has a relative viability (ChaGo-K-1; first compound 0.04 µM) of 0.589, a relative viability (ChaGo-K-1; first compound 0.1265 µM) of 0.548 and a relative viability (ChaGo-K-1; first compound 0.4 µM) of 0.622. For the same compound, the relative viability (ChaGo-K-1; first compound 1.265 µM) was 0.5, the relative viability (ChaGo-K-1; first compound 4 µM) was 0.594 and the relative viability (NCI-H1623; first compound 0.04 µM) was 0.39. For the same compound, the relative viability (NCI-H1623; first compound 0.1265 µM) was 0.618, the relative viability (NCI-H1623; first compound 0.4 µM) was 0.446 and the relative viability (NCI-H1623; first compound 1.265 µM) was 0.418. It also gave a relative viability (NCI-H1623; first compound 4 µM) of 0.386, a relative viability (NCI-H1648; first compound 0.04 µM) of 0.258 and a relative viability (NCI-H1648; first compound 0.1265 µM) of 0.265. The relative viability (NCI-H1648; first compound 0.4 µM) was 0.299, the relative viability (NCI-H1648; first compound 1.265 µM) was 0.238 and the relative viability (NCI-H1648; first compound 4 µM) was 0.255.
CC(C)Oc1cc(Nc2nc(N[C@@H](C)c3ccc(F)cn3)ncc2Cl)n[nH]1 [AZ23] + N=C(N)NC(=N)NCCc1ccccc1 [Phenformin] (partner 250 µM) showed a relative viability (A549; first compound 0.01 µM) of 0.181, a relative viability (A549; first compound 0.03162 µM) of 0.227 and a relative viability (A549; first compound 0.3162 µM) of 0.176. For the same compound, the relative viability (ChaGo-K-1; first compound 0.01 µM) was 0.497, the relative viability (ChaGo-K-1; first compound 0.03162 µM) was 0.458 and the relative viability (ChaGo-K-1; first compound 0.3162 µM) was 0.529. It also gave a relative viability (NCI-H1623; first compound 0.01 µM) of 0.54, a relative viability (NCI-H1623; first compound 0.03162 µM) of 0.618 and a relative viability (NCI-H1623; first compound 0.3162 µM) of 0.61.
Compound C[C@@H]1CN(CC(=O)Nc2ccc3c(c2)Cc2cccc(-c4cc(=O)cc(N5CCOCC5)o4)c2S3)C[C@H](C)O1 + N=C(N)NC(=N)NCCc1ccccc1 [Phenformin] (partner 250 µM) has a relative viability (A549; first compound 0.04 µM) of 0.106, a relative viability (A549; first compound 0.1265 µM) of 0.197 and a relative viability (A549; first compound 0.4 µM) of 0.252. It also gave a relative viability (A549; first compound 4 µM) of 0.138, a relative viability (ChaGo-K-1; first compound 0.04 µM) of 0.48 and a relative viability (ChaGo-K-1; first compound 0.1265 µM) of 0.45. For the same compound, the relative viability (ChaGo-K-1; first compound 0.4 µM) was 0.474, the relative viability (ChaGo-K-1; first compound 4 µM) was 0.411 and the relative viability (NCI-H1623; first compound 0.04 µM) was 0.523. For the same compound, the relative viability (NCI-H1623; first compound 0.1265 µM) was 0.617, the relative viability (NCI-H1623; first compound 0.4 µM) was 0.54 and the relative viability (NCI-H1623; first compound 4 µM) was 0.61.
Work on COc1cc(N2CCC(C(N)=O)CC2)ccc1Nc1nc(N)c(Cl)c(Nc2ccccc2S(=O)(=O)C(C)C)n1 [HG-5-88-01] + O=C(c1cc(Cc2n[nH]c(=O)c3ccccc23)ccc1F)N1CCN(C(=O)C2CC2)CC1 [Olaparib] (partner 8 µM) yielded a relative viability (A549; first compound 0.04 µM) of 0.357, a relative viability (A549; first compound 0.1265 µM) of 0.419 and a relative viability (A549; first compound 0.4 µM) of 0.352. The relative viability (A549; first compound 1.265 µM) was 0.273, the relative viability (A549; first compound 4 µM) was 0.25 and the relative viability (Calu-6; first compound 0.04 µM) was 0.599. It also gave a relative viability (Calu-6; first compound 0.1265 µM) of 0.579, a relative viability (Calu-6; first compound 0.4 µM) of 0.579 and a relative viability (Calu-6; first compound 1.265 µM) of 0.537. For the same compound, the relative viability (Calu-6; first compound 4 µM) was 0.46, the relative viability (ChaGo-K-1; first compound 0.04 µM) was 0.421 and the relative viability (ChaGo-K-1; first compound 0.1265 µM) was 0.418. The relative viability (ChaGo-K-1; first compound 0.4 µM) was 0.455, the relative viability (ChaGo-K-1; first compound 1.265 µM) was 0.421 and the relative viability (ChaGo-K-1; first compound 4 µM) was 0.393. The relative viability (EBC-1; first compound 0.04 µM) was 0.712, the relative viability (EBC-1; first compound 0.1265 µM) was 0.77 and the relative viability (EBC-1; first compound 0.4 µM) was 0.733. The relative viability (EBC-1; first compound 1.265 µM) was 0.668, the relative viability (EBC-1; first compound 4 µM) was 0.489 and the relative viability (IA-LM; first compound 0.04 µM) was 0.79. The relative viability (IA-LM; first compound 0.1265 µM) was 0.839, the relative viability (IA-LM; first compound 0.4 µM) was 0.87 and the relative viability (IA-LM; first compound 1.265 µM) was 0.699. For the same compound, the relative viability (IA-LM; first compound 4 µM) was 0.649, the relative viability (NCI-H1299; first compound 0.04 µM) was 0.956 and the relative viability (NCI-H1299; first compound 0.1265 µM) was 0.972. For the same compound, the relative viability (NCI-H1299; first compound 0.4 µM) was 0.986, the relative viability (NCI-H1299; first compound 1.265 µM) was 0.951 and the relative viability (NCI-H1299; first compound 4 µM) was 0.87. For the same compound, the relative viability (NCI-H1648; first compound 0.04 µM) was 1.13, the relative viability (NCI-H1648; first compound 0.1265 µM) was 0.63 and the relative viability (NCI-H1648; first compound 0.4 µM) was 0.457. For the same compound, the relative viability (NCI-H1648; first compound 1.265 µM) was 0.773, the relative viability (NCI-H1648; first compound 4 µM) was 0.462 and the relative viability (NCI-H1703; first compound 0.04 µM) was 0.341. It also gave a relative viability (NCI-H1703; first compound 0.1265 µM) of 0.386, a relative viability (NCI-H1703; first compound 1.265 µM) of 0.305 and a relative viability (NCI-H1703; first compound 4 µM) of 0.309.
